Test results reported in patent US9126982B2, “Heterocyclic compounds, medicaments containing them, use and processes for the preparation thereof” (Boehringer Ingelheim International GmbH, priority 2013, dated 2015).
Like-named read-outs stand apart in the source and are kept apart here.

How the values were obtained:
[1] = system: Mouse kidney M-1 cells; experiment: Ussing Chamber assay, short circuit current in M-1 cells; type: cell-based; settings: inhibition of amiloride sensitive short circuit current (I_sc), compounds applied to the apical solution, 37° C.
Experimental: Ussing Chamber: Mouse kidney M-1 cells were cultivated in DMEM containing 5% FCS and 5 μM dexamethasone for 10 to 12 days on polyester transwell filters. Filters were inserted into a teflon-coated well-plate which fit into the ussing chamber system. Prior to measurement the medium of M-1 cells was replaced with Caco-2 transport buffer (Invitrogen, Germany). During measurements, the Ussing chamber temperature was kept at 37° C. Short circuit currents (I_sc) were measured in the voltage-clamp mode using an amplifier with the software package Lab View for data acquisition and analysis. The transepithelial electrical resistance (TEER) was determined by the application of voltage steps of ±5 mV every 5 sec. Compounds were administered at a final concentration of 3 μM or at increasing concentrations (e.g. 1-3-10 μM) to the apical solution. At the end of each experiment the amiloride sensitive I_SC was measured by adding 3 μM amiloride to the apical compartment. Results are expressed as inhibition in percent of the amiloride effect or as IC50.
With the example compounds given above, the following IC50 values given in Table 1 were determined in the Ussing Chamber assay: […]

[2] = Permeability and efflux in CALU-3 cells; type: in vitro ADME; settings: human, Papp basal-to-apical, CALU-3 monolayers, pH 7.4, 37° C., 10 μM compound, read-out: P BA
Experimental: Permeability and Efflux in CALU-3 Cells:
Permeability measurements across polarized, confluent CALU-3 cell monolayers grown on permeable filter supports are used to provide information on the potential of a compound to pass the lung epithelium.
CALU-3 cells (1-2×10^5 cells/1 cm^2 area) are seeded on filter inserts (Costar transwell polycarbonate filters, 0.4 μm pore size) and cultured (DMEM) for 10-12 days until tight monolayers are formed. Compounds of interest are dissolved in appropriate solvent (DMSO, 10 mM stock solution). Stock solutions are diluted with HTP-4 buffer (128.13 mM NaCl, 5.36 mM KCl, 1 mM MgSO4, 1.8 mM CaCl2, 4.17 mM NaHCO3, 1.19 mM Na2HPO4×7H2O, 0.41 mM NaH2PO4×H2O, 15 mM HEPES, 20 mM glucose, 0.25% BSA, pH 7.4) to prepare the transport solutions (10 μM compound, final DMSO<=0.5%). The transport solution (TL) is applied to the apical or basolateral donor side for measuring A-B or B-A permeability (3 filter replicates), respectively. The receiver side contains the same buffer as the donor side. After 30 min of accommodation, samples are collected at the start t0=0 min and at the end of the experiment tn=90 min from the donor and at 0, 30, 60, and 90 min also from the receiver chamber. Volume removed is replenished by HTP-4 buffer. The compound concentration in the samples is measured by HPLC-MS/MS or scintillation counting. The permeability coefficient (Papp) and efflux ratio are calculated according to: Papp [cm/s]=(concentration receiver [nM]*volume receiver [mL]/time interval [sec])*(1/filter area)*(1/donor concentration [nM]) Efflux ratio or Uptake ratio=Papp,BA/Papp,AB

Structure (SMILES)	IC50 [1] [nM]	Papp B→A at 90 min, 10 μM ([2]; exponent E−07) [×10⁻⁶ cm/s]	Papp B→A at 90 min, 10 μM ([2]; exponent E−06 printed in the row below (r3)) [×10⁻⁶ cm/s]
COC(=O)CN(C)[C@H]1CC[C@H](N/C(N)=N/C(=O)c2nc(Cl)c(N)nc2N)CC1 [Example 1.1]	7	–	–
N/C(=N\C(=O)c1nc(Cl)c(N)nc1N)N[C@H]1CC[C@H](NC(=O)CN(CC(=O)O)CC(=O)O)CC1 [Example 2.1]	304	–	–
CN(C)CCCN[C@H]1CC[C@H](N/C(N)=N/C(=O)c2nc(Cl)c(N)nc2N)CC1 [Example 4.1]	31	–	< 2.72
CC(C)(C)OC(=O)c1ccc(C(=O)N[C@H]2CC[C@H](N/C(N)=N/C(=O)c3nc(Cl)c(N)nc3N)CC2)cc1 [Example 5.1]	10	–	–
C[C@@H](N)C(=O)N[C@H]1CC[C@H](N/C(N)=N/C(=O)c2nc(Cl)c(N)nc2N)CC1.O=C(O)C(F)(F)F [Example 6.1]	34	0.225	–
N/C(=N\C(=O)c1nc(Cl)c(N)nc1N)N[C@H]1CC[C@H](N)CC1 [Example 6.2]	6	< 0.272	–

More lines, in order of falling IC50 [1], values ahead:

IC50 [1] [nM]	Papp B→A at 90 min, 10 μM ([2]; exponent E−07) [×10⁻⁶ cm/s]	Papp B→A at 90 min, 10 μM ([2]; exponent E−06 printed in the row below (r3)) [×10⁻⁶ cm/s]	Structure (SMILES)
25	0.229	–	C[N+]1(C)CCN(CC(=O)N[C@H]2CC[C@H](N/C(N)=N/C(=O)c3nc(Cl)c(N)nc3N)CC2)CC1.[I-] [Example 3.1]
25	0.354	–	CN1CCN(S(=O)(=O)N[C@H]2CC[C@H](N/C(N)=N/C(=O)c3nc(Cl)c(N)nc3N)CC2)CC1.O=C(O)C(F)(F)F [Example 8]
10	–	–	N=C(N)N[C@H]1CC[C@H](N/C(N)=N/C(=O)c2nc(Cl)c(N)nc2N)CC1 [Example 7]
